“Also recorded” adds a separate entry of the source.
What was measured:
[1] = test system: primary human T cells; assay: Transient transfection of activated primary human T cells with DNA LNPs, GFP expression by flow cytometry; assay type: cell-based
Protocol: Separate compositions of CD4+ and CD8+ cells were selected by immunoaffinity-based enrichment from isolated PBMCs from leukapheresis samples from four healthy human donors. The selected cell compositions were cryopreserved, subsequently thawed and combined in culture at a 1:1 ratio of viable CD4+ to viable CD8+ cells. The combined CD4+ and CD8+ cell composition was then incubated for 48 hours with anti-CD3/CD28 beads (1:1 cell-to-bead ratio) in media containing recombinant IL-2, IL-7, and IL-15 to activate (stimulate) the T cells. […] The cells were cultured in media supplemented with 1 μg/mL of apolipoprotein E4 (ApoE4) to support cellular uptake of the LNPs.
Cells were analyzed by flow cytometry 24 to 48 hours after transfection to determine cell viability and transient GFP expression. Cell viability was determined by quantification of dead cells using SYTOX™ blue dead cell stain and GFP expression was determined via flow cytometry.
Formulations as described in Table E4 were used to transiently transfect human T cells at a 6.0 μg/mL DNA dosing concentration (final concentration with cells), and the effects of varying the described parameters on cell viability and transfection efficiency of T cells were assessed. A combined CD4+ and CD8+ T cell composition was generated and activated substantially as described in Example 2, and incubated in media with […] ApoE4 and LNPs generated from the various formulations for approximately 24 hours at 37° Celsius, 5% CO2, to allow for transfection. Following incubation, cells were assessed for viability and transfection efficiency as described in Example 2. Increasing ionizable lipid mass fraction percentage decreased transfection efficiency (p<0.05; left panel of FIGS. 6A), while there was no statistically significant effect of helper lipid or PEG lipid mass fraction percentage on transfection efficiency (middle and right panels, respectively, of FIG. 6A).

[2] = DNA loading into LNPs, Quant-iT PicoGreen dsDNA assay; assay type: physicochemical; details: Example 4a, Table E14 formulations
Protocol: The resulting LNPs were sized by dynamic light scattering (DLS) before being stored overnight at 5 Celsius. Following overnight incubation, the LNPs were again sized by DLS, and then sterile filtered in a biosafety cabinet. LNPs having an Z-average particle size greater than 200 nm in diameter were filtered using a 0.45 µm filter. All other LNPs were filtered using a 0.2 µm filter. Following sterile filtration, the LNPs were sized a final time by DLS. The LNPs were also assessed for DNA loading, as determined by the Quant-iT™ PicoGreen™ dsDNA broad range DNA assay. Percent DNA loading was calculated as 100×(signal of sample with Triton-X−signal of sample in DI water)/(signal of sample with Triton-X).

DNA loading [2] | SMILES | transfection efficiency ([1]; Example 4a, alkyl chain linker length, Table E14 formulations) | transfection efficiency ([1]; Example 4b, heterocyclic headgroup, Table E16 formulations) | transient transfection in T cells (GFP expression) ([1]; F9 and F9A formulations with various ionizable lipids, 24 hours)
consistently high DNA loading | CCCCC/C=C\C/C=C\CCCCCCCCC1(CCCCCCCC/C=C\C/C=C\CCCCC)OCC(CCN(C)C)O1 (stereo not shown) [DLin-KC2-DMA, 2,2-dilinoleyl-4-dimethylaminoethyl-[1,3]-dioxolane] | higher transfection efficiency compared to the other lipids; also recorded: highest transfection efficiency | highest | 
 | CCCCC/C=C\C/C=C\CCCCCCCC(=O)OCCCCN(CCCCOC(=O)CCCCCCC/C=C\C/C=C\CCCCC)CCCCC1NC(=O)C(CCCCN(CCCCOC(=O)CCCCCCC/C=C\C/C=C\CCCCC)CCCCOC(=O)CCCCCCC/C=C\C/C=C\CCCCC)NC1=O (stereo not shown) [OF-C4-Deg-Lin] |  |  | highest levels of transient transfection
